For 12 compounds, Ki and IC70 results are on record in US20190194209A1, “PYRAZOLE CARBOXAMIDE COMPOUNDS AND METHODS OF USE” (Genentech, Inc., priority 2014, published 2019).

The target in test [1] is T1, full length human wildtype Btk (Homo sapiens, UniProt Q06187).
T1 construct: V5 (C); 6xHis (C); made in house; host or cells: Sf9 cells (baculovirus, pFastBac)
As to the kind of experiment: Biochemical Btk Kinase Assay (Example 901). The conditions noted are these: read-out: BTK LC3K (Ki). The method, then: Formula I compounds were tested by a standard biochemical Btk, Kinase Assay (Example 901). A generalized procedure for a standard biochemical Btk, Kinase Assay that can be used to test Formula I compounds is as follows. A master mix minus Btk enzyme is prepared containing 1× Cell Signaling kinase buffer (25 mM Tris-HCl, pH 7.5, 5 mM beta-glycerophosphate, 2 mM dithiothreitol, 0.1 mM Na3VO4, 10 mM MgCl2), 0.5 μM Promega PTK Biotinylated peptide substrate 2, and 0.01% BSA. A master mix plus Btk enzyme is prepared containing 1× Cell Signaling kinase buffer, 0.5 μM (micromolar) PTK Biotinylated peptide substrate 2, 0.01% BSA, and 100 ng/well (0.06 mU/well) Btk enzyme. Btk enzyme is prepared as follows: full length human wildtype Btk (accession number NM-000061) with a C-terminal V5 and 6×His tag was subcloned into pFastBac® vector (Invitrogen/Life Technologies) for making baculovirus carrying this epitope-tagged Btk. Generation of baculovirus is done based on Invitrogen's instructions detailed in its published protocol “Bac-to-Bac Baculovirus Expression Systems” (Invitrogen/Life Technologies, Cat. Nos. 10359-016 and 10608-016). Passage 3 virus is used to infect Sf9 cells to overexpress the recombinant Btk protein. The Btk protein is then purified to homogeneity using Ni-NTA column. The purity of the final protein preparation is greater than 95% based on the sensitive Sypro-Ruby staining. A solution of 200 μM ATP is prepared in water and adjusted to pH 7.4 with 1N NaOH. A quantity of 1.25 μL (microliter) of compounds in 5% DMSO is transferred to a 96-well 2 area Costar polystyrene plate. Compounds are tested singly and with an 11-point dose-responsive curve (starting concentration is 10 μM; 1:2 dilution). A quantity of 18.75 μL of master mix minus enzyme (as a negative control) and master mix plus enzyme is transferred to appropriate wells in 96-well 2 area costar polystyrene plate. 5 μL of 200 μM ATP is added to that mixture in the 96-well 2 area Costar polystyrene plate for final ATP concentration of 40 μM. The reaction is allowed to incubate for 1 hour at room temperature. The reaction is stopped with Perkin Elmer 1× detection buffer containing 30 mM EDTA, 20 nM SA-APC, and 1 nM PT66 Ab. The plate is read using time-resolved fluorescence with a Perkin Elmer Envision using excitation filter 330 nm, emission filter 665 nm, and 2nd emission filter 615 nm. IC50 values are subsequently calculated. Alternatively, the Lanthascreen assay can be used to evaluate Btk activity through quantification of its phosphorylated peptide product. The FRET (Fluorescence Resonance Energy Transfer) that occurs between the fluorescein on the peptide product and the terbium on the detection antibody decreases with the addition of inhibitors of Btk that reduce the phosphorylation of the peptide. In a final reaction volume of 25 μL (microliters), Btk (h) (0.1 ng/25 μl reaction) is incubated with 50 mM Hepes pH 7.5, 10 mM MgCl2, 2 mM MnCl2, 2 mM DTT, 0.2 mM NaVO4, 0.01% BSA, and 0.4 uM fluorescein poly-GAT. The reaction is initiated by the addition of ATP to 25 μM (micromolar) the Km of ATP. After incubation for 60 minutes at room temperature, the reaction is stopped by the addition of a final concentration of 2 nM Tb-PY20 detection antibody in 60 mM EDTA for 30 minutes at room temperature. Detection is determined on a Perkin Elmer Envision with 340 nm excitation and emission at 495 nm and 520 nm. Exemplary Btk inhibition […] values are in Table 1.

In test [2] the test system is CD69 production by B lymphocytes in human whole blood activated with goat F(ab')2 anti-human IgM. The test can be described thus: CD69 Whole Blood Assay (Example 907). The test is classed as cell-based. The following applies: Lymphocyte, read-out: CD69 Hu Blood FACS (IC70). An excerpt: A CD69 Whole Blood Assay can be conducted on Formula I compounds to determine the ability of compounds to inhibit the production of CD69 by B lymphocytes in human whole blood activated by crosslinking surface IgM with goat F(ab′)2 anti-human IgM (Example 907). CD69 is a type II C-type lectin involved in lymphocyte migration and cytokine secretion. CD69 expression represents one of the earliest available indicators of leukocyte activation and its rapid induction occurs through transcriptional activation (Vazquez et al (2009) Jour. of Immunology Published Oct. 19, 2009, doi: 10.4049/jimmunol.0900839). Concentration-dependent inhibition of antigen receptor stimulation by selective Btk inhibitors induces cell surface expression of the lymphocyte activation marker CD69 (Honigberg et al (2010) Proc. Natl. Acad. Sci. 107(29):13075-13080). Thus, CD69 inhibition by selective Btk inhibitors may be correlated with therapeutic efficacy of certain B-cell disorders.
Human blood is obtained from healthy volunteers, with the following restrictions: 1 week drug-free, non-smokers. Blood (approximately 20 mls to test 8 compounds) is collected by venipuncture into Vacutainer® (Becton, Dickinson and Co.) tubes with sodium heparin.
Solutions of Formula I compounds at 10 mM in DMSO are diluted 1:10 in 100% DMSO, then are diluted by three-fold serial dilutions in 100% DMSO for a ten point dose-response curve. The compounds are further diluted 1:10 in PBS and then an aliquot of 5.5 μl of each compound is added in duplicate to a 2 ml 96-well plate; 5.5 μl of 10% DMSO in PBS is added as control and no-stimulus wells. Human whole blood—HWB (100 μl) is added to each well. After mixing the plates are incubated at 37° C., 5% CO2, 100% humidity for 30 minutes. Goat F(ab′)2 anti-human IgM (10 μl of a 500 μg/ml solution, 50 μg/ml final) is added to each well (except the no-stimulus wells) with mixing and the plates are incubated for an additional 20 hours. At the end of the 20 hour incubation, samples are incubated with fluorescent labeled antibodies for 30 minutes, at 37° C., 5% CO2, 100% humidity. Include induced control, unstained and single stains for compensation adjustments and initial voltage settings. Samples are then lysed with PharM Lyse™ (BD Biosciences Pharmingen) according to the manufacturer's instructions. Samples are then transferred to a 96 well plate suitable to be run on the BD Biosciences HTS 96 well system on the LSRII machine. Data acquired and Mean Fluorescence Intensity values were obtained using BD Biosciences DIVA Software. Results are initially analyzed by FACS analysis software (Flow Jo).

[3] abbreviates: human whole blood, anti-IgM stimulated, 20 hour incubation, CD20 positive cells, FACS.

The structures appear in SMILES notation. Like-named read-outs stand apart in the source and are kept apart here.

T1 sequence (Q06187 whole entry): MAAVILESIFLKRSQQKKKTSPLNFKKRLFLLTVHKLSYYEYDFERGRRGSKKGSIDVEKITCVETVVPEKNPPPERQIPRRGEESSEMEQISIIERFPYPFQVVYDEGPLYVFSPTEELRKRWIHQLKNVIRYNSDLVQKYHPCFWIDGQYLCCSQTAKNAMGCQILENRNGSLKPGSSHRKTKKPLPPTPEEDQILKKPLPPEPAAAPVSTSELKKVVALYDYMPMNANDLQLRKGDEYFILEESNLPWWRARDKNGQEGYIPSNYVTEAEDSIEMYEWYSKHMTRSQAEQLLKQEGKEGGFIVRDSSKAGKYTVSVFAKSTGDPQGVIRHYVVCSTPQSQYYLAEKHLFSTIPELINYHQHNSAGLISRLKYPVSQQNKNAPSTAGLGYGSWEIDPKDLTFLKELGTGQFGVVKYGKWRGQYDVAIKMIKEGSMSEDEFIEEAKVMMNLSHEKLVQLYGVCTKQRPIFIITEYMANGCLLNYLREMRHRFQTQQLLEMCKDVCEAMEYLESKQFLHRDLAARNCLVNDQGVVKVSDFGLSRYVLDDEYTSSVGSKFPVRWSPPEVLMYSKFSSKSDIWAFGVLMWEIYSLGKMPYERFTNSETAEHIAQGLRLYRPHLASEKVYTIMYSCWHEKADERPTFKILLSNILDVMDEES

As for `C[C@H]1CN(C2COC2)CCN1c1ccc(Nc2nn(-c3ccnc(-n4ncc5cc(C(C)(C)C)cc(F)c5c4=O)c3CO)cc2C(N)=O)nc1` [Example 120, 1-[2-(6-tert-butyl-8-fluoro-1-oxo-phthalazin-2-yl)-3-(hydroxymethyl)-4-pyridyl]-3-[[5-[(2S)-2-methyl-4-(oxetan-3-yl)piperazin-1-yl]-2-pyridyl]amino]pyrazole-4-carboxamide], in test [1], the Ki worked out at 0.106 nM. Besides, the IC70 in test [2] (setting [3]) was determined as 98.6 nM.

For the compound `Cn1cc(Nc2nn(-c3ccnc(-n4ncc5cc(C(C)(C)C)cc(F)c5c4=O)c3CO)cc2C(N)=O)nn1` [Example 111, 1-[2-(6-tert-butyl-8-fluoro-1-oxo-phthalazin-2-yl)-3-(hydroxymethyl)-4-pyridyl]-3-[(1-methyltriazol-4-yl)amino]pyrazole-4-carboxamide], the Ki in test [1] amounted to 0.131 nM. In addition, the IC70 in test [2] (setting [3]) came to 77.3 nM.

On to `CC1(C)Cc2cc3n(c2C1)CCN(c1nccc(-n2cc(C(N)=O)c(Nc4ccccc4)n2)c1CO)C3=O` [Example 101, 3-anilino-1-[2-(7,7-dimethyl-4-oxo-1,2,6,8-tetrahydrocyclopenta[3,4]pyrrolo[3,5-b]pyrazin-3-yl)-3-(hydroxymethyl)-4-pyridyl]pyrazole-4-carboxamide], for which the Ki in test [1] turned out to be 2.4 nM. Moreover, the IC70 in test [2] (setting [3]) came out at 36.9 nM.

In the case of `C[C@H]1CN(C2COC2)CCN1c1ccc(Nc2nn(-c3cc(F)cc(N4CCn5c(cc6c5CC(C)(C)C6)C4=O)c3CO)cc2C(N)=O)nc1` [Example 145, 1-[3-(7,7-dimethyl-4-oxo-1,2,6,8-tetrahydrocyclopenta[3,4]pyrrolo[3,5-b]pyrazin-3-yl)-5-fluoro-2-(hydroxymethyl)phenyl]-3-[[5-[(2S)-2-methyl-4-(oxetan-3-yl)piperazin-1-yl]-2-pyridyl]amino]pyrazole-4-carboxamide], the Ki in test [1] turned out to be 0.103 nM. The IC70 in test [2] (setting [3]) amounted to 30.4 nM.

On to `Cn1cc(-c2nn(-c3cc(F)cc(-n4ncc5cc(C(C)(C)C)cc(F)c5c4=O)c3CO)cc2C(N)=O)cn1` [Example 127, 1-[3-(6-tert-butyl-8-fluoro-1-oxo-phthalazin-2-yl)-5-fluoro-2-(hydroxymethyl)phenyl]-3-(1-methylpyrazol-4-yl)pyrazole-4-carboxamide], for which the Ki in test [1] was 1.3 nM. For the same compound, the IC70 in test [2] (setting [3]) amounted to 5000 nM.

With `CC1(C)Cc2cc3n(c2C1)CCN(c1cccc(-n2cc(C(N)=O)c(Nc4ccccn4)n2)c1CO)C3=O` [Example 102, 1-[3-(7,7-dimethyl-4-oxo-1,2,6,8-tetrahydrocyclopenta[3,4]pyrrolo[3,5-b]pyrazin-3-yl)-2-(hydroxymethyl)phenyl]-3-(2-pyridylamino)pyrazole-4-carboxamide], in test [1], the Ki amounted to 1.01 nM. For the same compound, in test [2] (setting [3]), the IC70 is 166 nM.

With `CC(C)(C)c1cc(F)c2c(=O)n(-c3nccc(-n4cc(C(N)=O)c(Nc5ccc(Cl)cn5)n4)c3CO)ncc2c1` [Example 116, 1-[2-(6-tert-butyl-8-fluoro-1-oxo-phthalazin-2-yl)-3-(hydroxymethyl)-4-pyridyl]-3-[(5-chloro-2-pyridyl)amino]pyrazole-4-carboxamide], the Ki in test [1] turned out to be 0.403 nM. Further, the IC70 in test [2] (setting [3]) was 311 nM.

In the case of `CC1(C)Cc2cc3n(c2C1)CCN(c1nccc(-n2cc(C(N)=O)c(Nc4ccccn4)n2)c1CO)C3=O` [Example 103, 1-[2-(7,7-dimethyl-4-oxo-1,2,6,8-tetrahydrocyclopenta[3,4]pyrrole[3,5-b]pyrazin-3-yl)-3-(hydroxymethyl)-4-pyridyl]-3-(2-pyridylamino)pyrazole-4-carboxamide], the Ki in test [1] came to 0.565 nM. Besides, the 70% effect concentration (IC70) in test [2] (setting [3]) stood at 127 nM.

For the compound `CC(C)(C)c1cc(F)c2c(=O)n(-c3nccc(-n4cc(C(N)=O)c(Nc5ccc(N6CCNCC6)cn5)n4)c3CO)ncc2c1` [Example 118, 1-[2-(6-tert-butyl-8-fluoro-1-oxo-phthalazin-2-yl)-3-(hydroxymethyl)-4-pyridyl]-3-[(5-piperazin-1-yl-2-pyridyl)amino]pyrazole-4-carboxamide], the Ki in test [1] worked out at 0.248 nM. For the same compound, in test [2] (setting [3]), the IC70 worked out at 574 nM.

As for `CCC(=O)Nc1nn(-c2ccnc(N3CCn4c(cc5c4CC(C)(C)C5)C3=O)c2CO)cc1C(N)=O` [Example 123, 1-[2-(7,7-dimethyl-4-oxo-1,2,6,8-tetrahydrocyclopenta[3,4]pyrrolo[3,5-b]pyrazin-3-yl)-3-(hydroxymethyl)-4-pyridyl]-3-(propanoylamino)pyrazole-4-carboxamide], the Ki in test [1] came out at 32.1 nM. Besides, the IC70 in test [2] (setting [3]) turned out to be 685 nM.

Take `CC1(C)Cc2cc3n(c2C1)CCN(c1nccc(-n2cc(C(N)=O)c(N)n2)c1CO)C3=O` [Example 117, 3-amino-1-[2-(7,7-dimethyl-4-oxo-1,2,6,8-tetrahydrocyclopenta[3,4]pyrrolo[3,5-b]pyrazin-3-yl)-3-(hydroxymethyl)-4-pyridyl]pyrazole-4-carboxamide]: in test [1], the Ki is 2.45 nM. In addition, the IC70 in test [2] (Homo sapiens, 20 h) stood at 494 nM.

Turning to `C[C@H]1CN(C2COC2)CCN1c1ccc(Nc2nn(-c3ccnc(N4CCn5c(cc6c5CC(C)(C)C6)C4=O)c3CO)cc2C(N)=O)nc1` [Example 125, 1-[2-(7,7-dimethyl-4-oxo-1,2,6,8-tetrahydrocyclopenta[3,4]pyrrolo[3,5-b]pyrazin-3-yl)-3-(hydroxymethyl)-4-pyridyl]-3-[[5-[(2S)-2-methyl-4-(oxetan-3-yl)piperazin-1-yl]-2-pyridyl]amino]pyrazole-4-carboxamide], the Ki in test [1] is 0.296 nM.
